Test results from patent US12268657B2, “Coenzyme Q10 composition, and preparation method and application thereof in cardio-protection” (Guangdong Runhe Biotechnology Co., Ltd, priority 2023, dated 2025).

Tested on: myocardial ischemia rat models
Experiment: Protective effect on myocardial ischemia in rat model (coronary artery clamping)
Type: in vivo
Conditions: SD rats, 0.2 mg/kg per day for one week
Protocol: Specifically, several SD rats weighing about 200 g were selected to prepare myocardial ischemia rat models by a coronary artery clamping method. The successful-established model rats were uniformly divided into a blank group, a control group, and a treatment group, with 8 rats in each group. The blank group was not treated with any drug during the observation period, the control group was administered with 0.2 mg/kg of coenzyme Q10 per day for one week, and the treatment group was administered with 0.2 mg/kg of the coenzyme Q10 slow-release drug per day for one week. After the one-week administration, the myocardial infarction area, and superoxide dismutase (SOD) and malondialdehyde (MDA) content in the serum of the rats after artery ligation were recorded, and the results were shown in the table below. […] Moreover, after treatment with the slow-release drug, the activity of SOD was improved, and the generation of MDA was inhibited, which was favorable to reducing the occurrence of infarction.

## COC1=C(OC)C(=O)C(C/C=C(\C)CC/C=C(\C)CC/C=C(\C)CC/C=C(\C)CC/C=C(\C)CC/C=C(\C)CC/C=C(\C)CC/C=C(\C)CC/C=C(\C)CCC=C(C)C)=C(C)C1=O [coenzyme Q10, Coenzyme Q10]
  Myocardial infarction area (%): 14.69 ± 1.14%
serum
  MDA: 6.57 ± 0.68 nmol/mL
  SOD (NU/mL): 220.34 ± 8.56 NU/mL
